This note sets out measurements from US4129737A, “Process for the preparation of an 8-alkyl-5-oxo-5,8-dihydro-pyrido(2,3-d)pyrimidine-6-carboxylic acid” (priority 1972, dated 1978).

Each structure is given as a SMILES string. In brackets after ≈: the same amount, converted by molar mass. Like-named read-outs stand apart in the source and are kept apart here.

One data set deals with Staphylococcus SIM. Kind of data set: Average MIC, solid medium (nutrient agar) dilution method. The following applies: 18 h, read-out: minimum inhibitory concentration, average.
Another data set concerns B. pyocyaneus A22. Kind of data set: Minimum inhibitory concentration by agar dilution, B. pyocyaneus A22. The class given is cell-based. The following applies: Pseudomonas aeruginosa, A22, 37° C., 18 hours, read-out: minimum inhibitory concentration (M.I.C.). (In agar dilution the substance is mixed into plates at graded concentrations.)
For a further data set, the system named is Ps. aeruginosa 72-345. Kind of data set: Average MIC, solid medium (nutrient agar) dilution method. The following applies: Pseudomonas aeruginosa, 72345, 18 h, read-out: minimum inhibitory concentration, average.
In another data set the test system is Sh. sonnei I.P.S. The description is as above. The class given is cell-based. The following applies: Shigella sonnei, 18 h, average of five determinations, read-out: minimum inhibitory concentration, average.
A further data set has as its system B. pyocyaneus TUR. Kind of data set: Minimum inhibitory concentration by agar dilution, B. pyocyaneus TUR. The following applies: Pseudomonas aeruginosa, 37° C., 18 hours. The class given is cell-based.
The subject of the next data set is Salm. typhi 0901. The data set is described as follows: Average MIC, solid medium (nutrient agar) dilution method. The class given is cell-based. The following applies: Salmonella enterica, 18 h, read-out: minimum inhibitory concentration, average.
A short description of another data set: in vivo. The following applies: dog, 2.5 mg/kg. The protocol: In an experiment involving a 20 kg dog, 50 mg of the compound of Example VIII, corresponding to 2.5 mg/kg, were administered by means of a probang. The urine of the animal was removed by catheterisation at the 3rd and at the 7th hour, and the anti-bacterial activity of these samples was measured, taking the compound administered as the reference product.

Another data set has as its system S. enteritidis DANYZ. Kind of data set: Average MIC, solid medium (nutrient agar) dilution method. The following applies: Salmonella enterica, 18 h, read-out: minimum inhibitory concentration, average.
In another data set the test system is Streptococcus A561. The data set is described as above. The following applies: A561, 18 h, read-out: minimum inhibitory concentration, average.
In a further data set the test system is dog. The following applies: in vivo, 100 mg/kg/day.
The next data set deals with Streptococcus. The data set is described as follows: Minimum inhibitory concentration by agar dilution, Streptococcus Group A. In kind it is cell-based. The following applies: 37° C., 18 hours, read-out: minimum inhibitory concentration (M.I.C.).
For the next data set, the system named is Pr. morganii A 236. The data set is described as follows: Average MIC, solid medium (nutrient agar) dilution method. The following applies: Morganella morganii, A236, 18 h, read-out: minimum inhibitory concentration, average.
The subject of another data set is Providencia 0223. The description is as above. The following applies: Providencia, 0223, 18 h, read-out: minimum inhibitory concentration, average.
For a further data set, the system named is Esch. coli. 54-127 OMS. The description is as above. The following applies: Escherichia coli, 18 h, read-out: minimum inhibitory concentration, average.
The next data set has as its system Pr. vulgaris 12-53. The data set is described as above. The following applies: Proteus vulgaris, 1253, 18 h, read-out: minimum inhibitory concentration, average.
The test system of a further data set is Esch. Coli 95. The data set is described as follows: Minimum inhibitory concentration by agar dilution, Esch. Coli 95. The class given is cell-based. The following applies: Escherichia coli, 37° C., 18 hours, read-out: minimum inhibitory concentration (M.I.C.).
The next data set relates to rats. The data set is described as follows: Oral toxicity in rats. The class given is in vivo. The following applies: doses as high as 4 g per kilogram.
Setting [1] is: N.A. (nutrient agar, pH 6.8), Table I.
The mark [2] stands for this setting: T.S.A. (trypticase soya medium, pH 7.3).

Turning to `CCn1cc(C(=O)O)c(=O)c2cnc(N3CCNCC3)nc21` [Example VIII, 2-Piperazino-5-oxo-8-ethyl-5,8-dihydro-pyrido(2,3-d)pyrimidine-6-carboxylicacid], the MIC in the data set on Staphylococcus SIM came to 12.5 µg/mL (≈ 41.1 µM); with B. pyocyaneus A22 (setting [1]), 25 µg/mL (≈ 82.4 µM); in the data set on B. pyocyaneus A22 (setting [2]), 12.5 µg/mL (≈ 41.2 µM); with Ps. aeruginosa 72-345, 13.7 µg/mL (≈ 45.3 µM); in the data set on Sh. sonnei I.P.S., 0.56 µg/mL (≈ 1.85 µM); against B. pyocyaneus TUR (setting [1]), 25 µg/mL (≈ 82.4 µM). In addition, the MIC in the data set with B. pyocyaneus TUR (T.S.A. (trypticase soya medium, pH 7.3), read-out: minimum inhibitory concentration (M.I.C.)) is greater than 100 µg/mL; with Salm. typhi 0901, 2.06 µg/mL (≈ 6.79 µM); in the data set with S. enteritidis DANYZ, 1.2 µg/mL (≈ 3.96 µM); in the data set with Streptococcus A561, 13.7 µg/mL (≈ 45.3 µM); in the data set with Streptococcus (setting [1]) it was 25 µg/mL (≈ 82.4 µM); with Streptococcus (setting [2]) it was 25 µg/mL (≈ 82.4 µM). The MIC is 0.4 µg/mL (≈ 1.32 µM) in the data set with Pr. morganii A 236; 16.2 µg/mL (≈ 53.5 µM) in the data set with Providencia 0223; 5.66 µg/mL (≈ 18.7 µM) in the data set on Esch. coli. 54-127 OMS; 0.36 µg/mL (≈ 1.19 µM) in the data set with Pr. vulgaris 12-53; 0.8 µg/mL (≈ 2.64 µM) in the data set with Esch. Coli 95 (setting [1]); 0.8 µg/mL (≈ 2.64 µM) in the data set on Esch. Coli 95 (setting [2]). Further, the “urinary concentration at 7 hours relative to minimum inhibitory concentrations” value in “in vivo” was “still very much greater than the minimum inhibitory concentrations”. The molecule further registered a concentration at 3 h in the data set “in vivo” (po) of 185 µg/mL. In addition, the concentration at 7 h in the data set “in vivo” (po) is 90 µg/mL. In the data set on dog, the toxic signs result is recorded as “without showing any toxic signs”. Besides, the deaths entry with rats is “no deaths were observed”.
